Results from patent publication US7846959B2, “Raf modulators and methods of use” (Exelixis, Inc., priority 2004, dated 2010).

Experiments:
B-Raf = B-Raf (Homo sapiens, UniProt P15056); assay: Luciferase-coupled chemiluminescence kinase assay (ATP consumption), B-Raf; assay type: biochemical; settings: read-out: bRaf IC50
How it was run: (§1)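 Pre-incub. kinase […] + cpd, 30 min RT (20 mM Tris pH 7.5, 10 mM MgCl2, 0.03% TX-100, 1 mM DTT). Start w/ ATP, 3 h ambient. Luciferase-luciferin mix added and luminescence read. Total ATP use 25-60%. IC50 derived.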

c-Raf = c-Raf (Homo sapiens, UniProt P04049); assay: Luciferase-coupled chemiluminescence kinase assay (ATP consumption), c-Raf; assay type: biochemical; settings: read-out: cRaf-1 IC50
How it was run: as §1

Chain of B-Raf (P15056 whole entry): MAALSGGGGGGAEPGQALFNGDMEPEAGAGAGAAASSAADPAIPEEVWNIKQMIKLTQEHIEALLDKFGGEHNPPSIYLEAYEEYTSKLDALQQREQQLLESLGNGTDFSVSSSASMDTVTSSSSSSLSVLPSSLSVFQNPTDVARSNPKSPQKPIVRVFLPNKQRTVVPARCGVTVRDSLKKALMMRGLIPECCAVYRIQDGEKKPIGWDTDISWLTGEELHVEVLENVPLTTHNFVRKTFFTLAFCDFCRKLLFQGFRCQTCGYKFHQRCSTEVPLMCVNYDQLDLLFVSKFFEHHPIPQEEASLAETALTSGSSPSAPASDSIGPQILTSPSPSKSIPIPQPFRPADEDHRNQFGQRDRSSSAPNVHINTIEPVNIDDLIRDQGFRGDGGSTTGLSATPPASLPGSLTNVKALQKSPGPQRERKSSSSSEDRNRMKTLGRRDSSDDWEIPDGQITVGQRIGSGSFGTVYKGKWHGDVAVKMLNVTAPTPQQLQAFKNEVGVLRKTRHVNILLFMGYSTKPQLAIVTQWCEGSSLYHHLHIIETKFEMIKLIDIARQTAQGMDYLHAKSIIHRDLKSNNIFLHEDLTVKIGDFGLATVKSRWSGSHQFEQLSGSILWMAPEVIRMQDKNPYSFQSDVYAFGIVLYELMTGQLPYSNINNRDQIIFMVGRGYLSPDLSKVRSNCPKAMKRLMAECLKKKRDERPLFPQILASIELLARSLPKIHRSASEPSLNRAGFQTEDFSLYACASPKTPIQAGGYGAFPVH
Chain of c-Raf (P04049 whole entry): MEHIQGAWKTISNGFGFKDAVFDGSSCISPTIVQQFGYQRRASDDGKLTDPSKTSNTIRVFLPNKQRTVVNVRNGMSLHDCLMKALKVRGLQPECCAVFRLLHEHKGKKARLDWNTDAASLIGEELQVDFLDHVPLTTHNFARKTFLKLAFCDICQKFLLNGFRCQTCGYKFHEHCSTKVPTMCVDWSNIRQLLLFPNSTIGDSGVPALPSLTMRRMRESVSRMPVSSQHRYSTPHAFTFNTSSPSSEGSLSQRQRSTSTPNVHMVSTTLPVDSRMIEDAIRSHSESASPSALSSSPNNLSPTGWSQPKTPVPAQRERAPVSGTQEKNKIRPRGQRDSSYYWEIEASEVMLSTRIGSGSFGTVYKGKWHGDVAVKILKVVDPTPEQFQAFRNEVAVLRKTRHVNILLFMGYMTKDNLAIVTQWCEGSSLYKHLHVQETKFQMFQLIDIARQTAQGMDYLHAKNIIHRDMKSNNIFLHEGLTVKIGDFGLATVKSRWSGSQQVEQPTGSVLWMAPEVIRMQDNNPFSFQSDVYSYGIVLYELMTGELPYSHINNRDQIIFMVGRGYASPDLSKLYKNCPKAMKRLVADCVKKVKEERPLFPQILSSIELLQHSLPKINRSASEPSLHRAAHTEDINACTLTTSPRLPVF

IC50 (B-Raf) [nM]	IC50 (c-Raf) [nM]	Compound
< 100	< 100	COC(=O)Nc1nc2cc(C3(O)c4ccccc4C(=O)N3c3ccc(F)cc3)ccc2[nH]1 (stereo not drawn) [Entry 140, methyl {5-[2-(4-fluorophenyl)-1-hydroxy-3-oxo-2,3-dihydro-1H-isoindol-1-yl]-1H-benzimidazol-2-yl}carbamate]
< 100	< 100	COC(=O)Nc1nc2cc(C3(O)c4ccccc4C(=O)N3c3cc(C)cc(C)c3)ccc2[nH]1 (stereo not drawn) [Entry 141, methyl {5-[2-(3,5-dimethylphenyl)-1-hydroxy-3-oxo-2,3-dihydro-1H-isoindol-1-yl]-1H-benzimidazol-2-yl}carbamate]
< 100	< 100	COC(=O)Nc1nc2cc(C3(O)c4ccccc4C(=O)N3c3ccccc3F)ccc2[nH]1 (stereo not drawn) [Entry 142, methyl {5-[2-(2-fluorophenyl)-1-hydroxy-3-oxo-2,3-dihydro-1H-isoindol-1-yl]-1H-benzimidazol-2-yl}carbamate]
< 100	< 100	COC(=O)Nc1nc2cc(C3(O)c4ccccc4C(=O)N3c3ccccc3Cl)ccc2[nH]1 (stereo not drawn) [Entry 143, methyl {5-[2-(2-chlorophenyl)-1-hydroxy-3-oxo-2,3-dihydro-1H-isoindol-1-yl]-1H-benzimidazol-2-yl}carbamate]
< 100	< 100	COC(=O)Nc1nc2cc(C3(O)c4ccccc4C(=O)N3c3ccccc3C)ccc2[nH]1 (stereo not drawn) [Entry 144, methyl {5-[1-hydroxy-2-(2-methylphenyl)-3-oxo-2,3-dihydro-1H-isoindol-1-yl]-1H-benzimidazol-2-yl}carbamate]
< 100	< 100	COC(=O)Nc1nc2cc(C3(O)c4ccccc4C(=O)N3c3ccccc3OC)ccc2[nH]1 (stereo not drawn) [Entry 145, methyl (5-{1-hydroxy-2-[2-(methyloxy)phenyl]-3-oxo-2,3-dihydro-1H-isoindol-1-yl}-1H-benzimidazol-2-yl)carbamate]
100 to 1000	100 to 1000	COC(=O)Nc1nc2cc(C3(O)c4ccccc4C(=O)N3c3ccc(C)cc3)ccc2[nH]1 (stereo not drawn) [Entry 146, methyl {5-[1-hydroxy-2-(4-methylphenyl)-3-oxo-2,3-dihydro-1H-isoindol-1-yl]-1H-benzimidazol-2-yl}carbamate]
< 100	< 100	COC(=O)Nc1nc2cc(C3(O)c4ccccc4C(=O)N3c3cccc(C(F)(F)F)c3)ccc2[nH]1 (stereo not drawn) [Entry 147, methyl (5-{1-hydroxy-3-oxo-2-[3-(trifluoromethyl)phenyl]-2,3-dihydro-1H-isoindol-1-yl}-1H-benzimidazol-2-yl)carbamate]
< 100	< 100	CC#CCOC(=O)Nc1nc2cc(C3(O)c4ccccc4C(=O)N3[C@H](C)c3ccccc3)ccc2[nH]1 (stereo partly drawn) [Entry 148, but-2-yn-1-yl (5-{1-hydroxy-3-oxo-2-[(1R)-1-phenylethyl]-2,3-dihydro-1H-isoindol-1-yl}-1H-benzimidazol-2-yl)carbamate]
< 100	< 100	CCNC(=O)Nc1nc2cc(C3(O)c4ccccc4C(=O)N3Cc3ccccc3)ccc2[nH]1 (stereo not drawn) [Entry 149, N-ethyl-N′-{5-[1-hydroxy-3-oxo-2-(phenylmethyl)-2,3-dihydro-1H-isoindol-1-yl]-1H-benzimidazol-2-yl}urea]
< 100	< 100	C[C@H](c1ccccc1)N1C(=O)c2ccccc2C1(O)c1ccc2[nH]c(NC(=O)OCc3ccccc3)nc2c1 (stereo partly drawn) [Entry 150, phenylmethyl (5-{1-hydroxy-3-oxo-2-[(1R)-1-phenylethyl]-2,3-dihydro-1H-isoindol-1-yl}-1H-benzimidazol-2-yl)carbamate]
< 100	< 100	COC(=O)Nc1nc2ccc(C3(O)c4ccccc4C(=O)N3c3cc(N)cc(Cl)c3)cc2[nH]1 (stereo not drawn) [Entry 151, methyl {6-[2-(3-amino-5-chlorophenyl)-1-hydroxy-3-oxo-2,3-dihydro-1H-isoindol-1-yl]-1H-benzimidazol-2-yl}carbamate]
< 100	100 to 1000	O=C(Nc1nc2cc(C3(O)c4ccccc4C(=O)N3Cc3ccccc3)ccc2[nH]1)OCC1CCNCC1 (stereo not drawn) [Entry 152, piperidin-4-ylmethyl {5-[1-hydroxy-3-oxo-2-(phenylmethyl)-2,3-dihydro-1H-isoindol-1-yl]-1H-benzimidazol-2-yl}carbamate]
100 to 1000	100 to 1000	COC(=O)Nc1nc2cc(C3(O)c4ccccc4C(=O)N3CC3CC3)ccc2[nH]1 (stereo not drawn) [Entry 153, methyl {5-[2-(cyclopropylmethyl)-1-hydroxy-3-oxo-2,3-dihydro-1H-isoindol-1-yl]-1H-benzimidazol-2-yl}carbamate]
1000 to 10000	1000 to 10000	COC(=O)Nc1nc2cc(C3(O)c4ccccc4C(=O)N3CC(C)(C)C)ccc2[nH]1 (stereo not drawn) [Entry 154, methyl {5-[2-(2,2-dimethylpropyl)-1-hydroxy-3-oxo-2,3-dihydro-1H-isoindol-1-yl]-1H-benzimidazol-2-yl}carbamate]
< 100	< 100	COC(=O)Nc1nc2cc(C3(O)c4ccccc4C(=O)N3c3cc(Cl)cc(Cl)c3)ccc2[nH]1 (stereo not drawn) [Entry 155, methyl {5-[2-(3,5-dichlorophenyl)-1-hydroxy-3-oxo-2,3-dihydro-1H-isoindol-1-yl]-1H-benzimidazol-2-yl}carbamate]
100 to 1000	100 to 1000	COC(=O)Nc1nc2cc(C3(O)c4ccccc4C(=O)N3c3cc(F)cc(F)c3)ccc2[nH]1 (stereo not drawn) [Entry 156, methyl {5-[2-(3,5-difluorophenyl)-1-hydroxy-3-oxo-2,3-dihydro-1H-isoindol-1-yl]-1H-benzimidazol-2-yl}carbamate]
< 100	< 100	CCNC(=O)Nc1nc2cc(C3(O)c4ccccc4C(=O)N3[C@H](C)c3ccccc3)ccc2[nH]1 (stereo partly drawn) [Entry 157, N-ethyl-N′-(5-{1-hydroxy-3-oxo-2-[(1R)-1-phenylethyl]-2,3-dihydro-1H-isoindol-1-yl}-1H-benzimidazol-2-yl)urea]
< 100	< 100	CN(C)C(=O)Nc1nc2cc(C3(O)c4ccccc4C(=O)N3Cc3ccccc3)ccc2[nH]1 (stereo not drawn) [Entry 158, N′-{5-[1-hydroxy-3-oxo-2-(phenylmethyl)-2,3-dihydro-1H-isoindol-1-yl]-1H-benzimidazol-2-yl}-N,N-dimethylurea]
1000 to 10000	100 to 1000	COC(=O)Nc1nc2cc(C3(O)c4ccccc4C(=O)N3c3cccc(OCCN(C)C)c3)ccc2[nH]1 (stereo not drawn) [Entry 159, methyl {5-[2-(3-{[2-(dimethylamino)ethyl]oxy}phenyl)-1-hydroxy-3-oxo-2,3-dihydro-1H-isoindol-1-yl]-1H-benzimidazol-2-yl}carbamate]
< 100	< 100	CN1CCN(CCCOC(=O)Nc2nc3ccc(C4(O)c5ccccc5C(=O)N4Cc4ccccc4)cc3[nH]2)CC1 (stereo not drawn) [Entry 160, 3-(4-methylpiperazin-1-yl)propyl {6-[1-hydroxy-3-oxo-2-(phenylmethyl)-2,3-dihydro-1H-isoindol-1-yl]-1H-benzimidazol-2-yl}carbamate]
< 100	< 100	COC(=O)Nc1nc2cc(C3(O)c4ccccc4C(=O)N3CC3CCCCC3)ccc2[nH]1 (stereo not drawn) [Entry 161, methyl {5-[2-(cyclohexylmethyl)-1-hydroxy-3-oxo-2,3-dihydro-1H-isoindol-1-yl]-1H-benzimidazol-2-yl}carbamate]
100 to 1000	100 to 1000	COC(=O)Nc1nc2cc(C3(O)c4ccccc4C(=O)N3CC(C)C)ccc2[nH]1 (stereo not drawn) [Entry 162, methyl {5-[1-hydroxy-2-(2-methylpropyl)-3-oxo-2,3-dihydro-1H-isoindol-1-yl]-1H-benzimidazol-2-yl}carbamate]
100 to 1000	100 to 1000	COC(=O)Nc1nc2cc(C3(O)c4ccccc4C(=O)N3Cc3nccs3)ccc2[nH]1 (stereo not drawn) [Entry 163, methyl {5-[1-hydroxy-3-oxo-2-(1,3-thiazol-2-ylmethyl)-2,3-dihydro-1H-isoindol-1-yl]-1H-benzimidazol-2-yl}carbamate]
< 100	< 100	COC(=O)Nc1nc2cc(C3(O)c4ccccc4C(=O)N3c3ccc(F)c(F)c3)ccc2[nH]1 (stereo not drawn) [Entry 164, methyl {5-[2-(3,4-difluorophenyl)-1-hydroxy-3-oxo-2,3-dihydro-1H-isoindol-1-yl]-1H-benzimidazol-2-yl}carbamate]
1000 to 10000	100 to 1000	COC(=O)Nc1nc2cc(C3(O)c4ccccc4C(=O)N3C(C)c3cc(F)cc(F)c3)ccc2[nH]1 (stereo not drawn) [Entry 165, methyl (5-{2-[1-(3,5-difluorophenyl)ethyl]-1-hydroxy-3-oxo-2,3-dihydro-1H-isoindol-1-yl}-1H-benzimidazol-2-yl)carbamate]
< 100	100 to 1000	COC(=O)Nc1nc2cc(C3(O)c4ccccc4C(=O)N3C(C)c3cccc(F)c3)ccc2[nH]1 (stereo not drawn) [Entry 166, methyl (5-{2-[1-(3-fluorophenyl)ethyl]-1-hydroxy-3-oxo-2,3-dihydro-1H-isoindol-1-yl}-1H-benzimidazol-2-yl)carbamate]
< 100	< 100	COC(=O)Nc1nc2cc(C3(O)c4ccccc4C(=O)N3C3CCCCC3)ccc2[nH]1 (stereo not drawn) [Entry 167, methyl [5-(2-cyclohexyl-1-hydroxy-3-oxo-2,3-dihydro-1H-isoindol-1-yl)-1H-benzimidazol-2-yl]carbamate]
< 100	< 100	COC(=O)Nc1nc2cc(C3(O)c4ccccc4C(=O)N3c3cc(F)ccc3F)ccc2[nH]1 (stereo not drawn) [Entry 168, methyl {5-[2-(2,5-difluorophenyl)-1-hydroxy-3-oxo-2,3-dihydro-1H-isoindol-1-yl]-1H-benzimidazol-2-yl}carbamate]
< 100	< 100	O=C(NCc1ccccc1)Nc1nc2cc(C3(O)c4ccccc4C(=O)N3Cc3ccccc3)ccc2[nH]1 (stereo not drawn) [Entry 169, N-{5-[1-hydroxy-3-oxo-2-(phenylmethyl)-2,3-dihydro-1H-isoindol-1-yl]-1H-benzimidazol-2-yl}-N′-(phenylmethyl)urea]
